{
  "source": "patent US20090005322A1",
  "about": "“Physiologically- Active Composition Based on Collagen” (priority 2004, published 2009)",
  "origin": "cited, not measured here",
  "test_system": "human peripheral polymorphonuclear leucocytes",
  "data": [
    {"compound": "C[C@@H]1O[C@@H](O[C@@H]2[C@@H](O)[C@H](OCCc3ccc(O)c(O)c3)O[C@H](CO)[C@H]2OC(=O)/C=C/c2ccc(O)c(O)c2)[C@H](O)[C@H](O)[C@H]1O", "note": "[Acteoside, acteoside]", "values": [
      {"measurement": "formation of eicosatetraenoic acid derivatives (5-HET)", "value": "inhibits"},
      {"measurement": "formation of leucotriene B4", "value": "inhibits"}
    ]}
  ]
}
